Results published in BindingDB's records for doi:10.1016/j.bmcl.2004.06.037 (Alcon Research, 2004).

These compounds were tested against Prostaglandin F2-alpha receptor (Mus musculus) (UniProt P43117) (assay: Efficacy for stimulation of prostanoid FP receptor-linked phosphoinositide turnover in Swiss 3T3 mouse fibroblast cells).
Chain of Prostaglandin F2-alpha receptor (Mus musculus) (P43117 whole entry, looked up): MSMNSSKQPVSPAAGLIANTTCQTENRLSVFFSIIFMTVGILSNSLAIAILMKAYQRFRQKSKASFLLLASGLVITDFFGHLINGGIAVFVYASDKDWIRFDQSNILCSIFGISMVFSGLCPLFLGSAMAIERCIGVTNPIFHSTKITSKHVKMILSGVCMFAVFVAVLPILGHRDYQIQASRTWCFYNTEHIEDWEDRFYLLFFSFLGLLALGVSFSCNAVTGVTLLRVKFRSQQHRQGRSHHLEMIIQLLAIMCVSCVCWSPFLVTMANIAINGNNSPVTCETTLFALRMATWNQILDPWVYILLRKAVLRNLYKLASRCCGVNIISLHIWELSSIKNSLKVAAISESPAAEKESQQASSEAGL
In the case of `CC(C)OC(=O)CCC/C=C/C[C@@H]1[C@@H](/C=C/C(O)COc2cccc(C(F)(F)F)c2)[C@H](O)C[C@@H]1O` (stereo partly drawn) [(E)-7-{(1R,2R,3R,5S)-3,5-Dihydroxy-2-[(E)-3-hydroxy-4-(3-trifluoromethyl-phenoxy)-but-1-enyl]-cyclopentyl}-hept-5-enoic acid isopropyl ester], the EC50 is reported as 2.7 nM.
For `CCCCC[C@@H](O)/C=C/[C@H]1OC[C@H](O)[C@@H]1C/C=C\CCCC(=O)O` [(Z)-7-[(2R,3S,4R)-4-Hydroxy-2-((E)-(R)-3-hydroxy-oct-1-enyl)-tetrahydro-furan-3-yl]-hept-5-enoic acid], the EC50 was greater than 10000 nM.
For `CCCCC[C@H](O)/C=C/[C@H]1OC[C@H](O)[C@@H]1C/C=C\CCCC(=O)O` [(Z)-7-[(2R,3S,4R)-4-Hydroxy-2-((E)-(S)-3-hydroxy-oct-1-enyl)-tetrahydro-furan-3-yl]-hept-5-enoic acid], the EC50 was 2380 nM.
`O=C(O)CC/C=C\CCC[C@H]1[C@@H](O)CO[C@@H]1/C=C/[C@@H](O)COc1ccccc1` [(Z)-8-[(2R,3S,4R)-4-Hydroxy-2-((E)-(R)-3-hydroxy-4-phenoxy-but-1-enyl)-tetrahydro-furan-3-yl]-oct-4-enoic acid] was tested, and the EC50 was 57 nM.
With `O=C(O)CCCC/C=C\C[C@H]1[C@@H](O)CO[C@@H]1/C=C/[C@@H](O)COc1ccccc1` [(Z)-8-[(2R,3S,4R)-4-Hydroxy-2-((E)-(R)-3-hydroxy-4-phenoxy-but-1-enyl)-tetrahydro-furan-3-yl]-oct-6-enoic acid] the EC50 was 293 nM.
In the case of `O=C(O)CC/C=C\CCC[C@H]1[C@@H](O)CO[C@@H]1/C=C/[C@H](O)COc1ccccc1` [(Z)-8-[(2R,3S,4R)-4-Hydroxy-2-((E)-(S)-3-hydroxy-4-phenoxy-but-1-enyl)-tetrahydro-furan-3-yl]-oct-4-enoic acid], the EC50 is reported as 252 nM.
With `O=C(O)CCCC/C=C\C[C@H]1[C@@H](O)CO[C@@H]1/C=C/[C@H](O)COc1ccccc1` [(Z)-8-[(R)-4-Hydroxy-2-((1R,2S,4S)-3-hydroxy-4-phenoxy-but-1-enyl)-tetrahydro-furan-3-yl]-oct-6-enoic acid] the EC50 was 573 nM.
`O=C(O)CC/C=C\CCC[C@H]1[C@@H](O)CO[C@@H]1/C=C/[C@@H](O)COc1cccc(Cl)c1` [(Z)-8-{(2R,3S,4R)-2-[(E)-(R)-4-(3-Chloro-phenoxy)-3-hydroxy-but-1-enyl]-4-hydroxy-tetrahydro-furan-3-yl}-oct-4-enoic acid] was tested, and the EC50 was 23 nM.
`O=C(O)CCCC/C=C\C[C@H]1[C@@H](O)CO[C@@H]1/C=C/[C@@H](O)COc1cccc(Cl)c1` [(Z)-8-{(2R,3S,4R)-2-[(E)-(R)-4-(3-Chloro-phenoxy)-3-hydroxy-but-1-enyl]-4-hydroxy-tetrahydro-furan-3-yl}-oct-6-enoic acid] was tested, and the EC50 was 58 nM.
Compound `O=C(O)CC/C=C\CCC[C@H]1[C@@H](O)CO[C@@H]1/C=C/[C@H](O)COc1cccc(Cl)c1` [(Z)-8-{(2R,3S,4R)-2-[(E)-(S)-4-(3-Chloro-phenoxy)-3-hydroxy-but-1-enyl]-4-hydroxy-tetrahydro-furan-3-yl}-oct-4-enoic acid] has an EC50 of 249 nM.
Work on `O=C(O)CCCC/C=C\C[C@H]1[C@@H](O)CO[C@@H]1/C=C/[C@H](O)COc1cccc(Cl)c1` [(Z)-8-{(2R,3S,4R)-2-[(E)-(S)-4-(3-Chloro-phenoxy)-3-hydroxy-but-1-enyl]-4-hydroxy-tetrahydro-furan-3-yl}-oct-6-enoic acid] yielded an EC50 of 194 nM.
`O=C(O)CC/C=C\CCC[C@H]1[C@@H](O)CO[C@@H]1/C=C/[C@@H](O)COc1cccc(C(F)(F)F)c1` [(Z)-8-{(2R,3S,4R)-4-Hydroxy-2-[(E)-(R)-3-hydroxy-4-(3-trifluoromethyl-phenoxy)-but-1-enyl]-tetrahydro-furan-3-yl}-oct-4-enoic acid] showed an EC50 of 67 nM.
Compound `O=C(O)CCCC/C=C\C[C@H]1[C@@H](O)CO[C@@H]1/C=C/[C@@H](O)COc1cccc(C(F)(F)F)c1` [(Z)-8-{(2R,3S,4R)-4-Hydroxy-2-[(E)-(R)-3-hydroxy-4-(3-trifluoromethyl-phenoxy)-but-1-enyl]-tetrahydro-furan-3-yl}-oct-6-enoic acid] has an EC50 of 187 nM.
Work on `O=C(O)CC/C=C\CCC[C@H]1[C@@H](O)CO[C@@H]1/C=C/[C@H](O)COc1cccc(C(F)(F)F)c1` [(Z)-8-{(2R,3S,4R)-4-Hydroxy-2-[(E)-(S)-3-hydroxy-4-(3-trifluoromethyl-phenoxy)-but-1-enyl]-tetrahydro-furan-3-yl}-oct-4-enoic acid] yielded an EC50 of 781 nM.
For `O=C(O)CCCC/C=C\C[C@H]1[C@@H](O)CO[C@@H]1/C=C/[C@H](O)COc1cccc(C(F)(F)F)c1` [(Z)-8-{(2R,3S,4R)-4-Hydroxy-2-[(E)-(S)-3-hydroxy-4-(3-trifluoromethyl-phenoxy)-but-1-enyl]-tetrahydro-furan-3-yl}-oct-6-enoic acid], the EC50 was 899 nM.
For `CC(C)OC(=O)CCC/C=C/C[C@@H]1[C@@H](CC[C@@H](O)CCc2ccccc2)[C@H](O)C[C@@H]1O` [LATANOPROST (PHXA41)], the EC50 was 34.4 nM.
